Measured values as given in patent US4544660A, “Pharmaceutically active tropanes” (Beecham Group p.l.c., priority 1978, dated 1985).
Like-named read-outs stand apart in the source and are kept apart here.

Tests used:
Dopamine Receptor [1] = experiment: Inhibition of apomorphine induced stereotype behaviour in the rat; type: in vivo; design: key to I(a) Dose Inhibiting Stereotype Behaviour (slight inhibition, footnote *): *: slight at 0.05; key to I(a) Dose Inhibiting Stereotype Behaviour (slight inhibition, footnote +): +: slight at 1; details: s.c.; for I(a) Dose Inhibiting Stereotype Behaviour (dose for complete inhibition): apomorphine induced, IA(x) = inactive at dose in brackets
Excerpt: (§1) I. Dopamine Receptor Blocking Activity in the Central Nervous System
(a) Inhibition of apomorphine induced stereotype behaviour in the rat
(method of Ernst (1967), Psychopharmacologia (Berl.) 10 316-323).

gastric emptying = experiment: Increase in gastric emptying: reversal of apomorphine induced delay in gastric emptying in the rat; type: in vivo; details: for III(b) Increase in Gastric Emptying: 10 mg/kg s.c., apomorphine HCl 5 mg/kg s.c. induced delay
Protocol: (b) Increase in gastric emptying: reversal of apomorphine induced delay in gastric emptying in the rat
Rats equipped with chromic gastric fistulae were used and it was through this that 5 ml of a test meal (5 ml phosphate buffer at pH 9) was administered and recovered. The % recovery of the standard meal after remaining in the stomach for 10 minutes was taken as an index of gastric emptying. Delay in gastric emptying was induced by the administration of apomorphine HCl (5 mg/kg subcutaneously) which was given 15 minutes prior to the subcutaneous administration of the compound. The % recoveries of the test meal were determined at 15-25 and 45-55 minutes post-dosing with the compound and compared with vehicle only dosed animals set up simultaneously. Six animals were used for each group.

vomiting response = experiment: Anti-emetic activity in the dog (apomorphine induced vomiting); type: in vivo; design: key to II Anti-Emetic Activity Dose, slight activity (footnote *): *: slight at 5 × 10^-4; details: s.c.; for ED100: Canis lupus familiaris, 30 min before apomorphine HCl 0.1 mg/kg s.c., complete inhibition, read-out: II Anti-Emetic Activity Dose, Complete Inhibition
Protocol: II. Anti-emetic activity in the dog
Compounds were administered subcutaneously 30 minutes prior to administration of a standard dose of apomorphine HCl (0.1 mg/kg subcutaneously) and the vomiting response compared to that obtained when the same animals were dosed with apomorphine HCl and vehicle only.

Dopamine Receptor [2] = experiment: Inhibition of apomorphine induced climbing in the mouse; type: in vivo; details: p.o., apomorphine 1 mg/kg s.c.
Protocol: as §1
(b) Inhibition of apomorphine induced climbing in the mouse
The test is based on that described by Protais, P., Constantin, J. and Schwartz J.C. (1976), Psychopharmacology, 50, 1-6.
Apomorphine 1 mg/kg s.c. induces mice to climb the wall of a wire cage (inverted food hopper--11×7.5×18 cm high). Mice acclimatised in their home cages in groups of 5 are placed under the hoppers immediately after the injection of apomorphine 1 mg/kg s.c. At 10,20 and 30 minutes after injection climbing behaviour is scored. The mice are observed for 30 seconds and scored according to the position they spend the majority of time in, score 0--four paws on floor of cage; score 1--fore paws only on walls; score 2--all paws on wall of cage. The scores at all 3 times and for each mouse are summed and mice drug treated orally compared to mice receiving apomorphine only. A saline only treated group is also included and any score, generally <5% of maximum taken into account.

intragastric pressure = experiment: Increase in intragastric pressure in the rat; type: in vivo; design: III(a) Increase in Intragastric Pressure Dose (minimum dose for activity): unit not given here; details: s.c., 40 minute period after administration
Protocol: (a) Increase in intragastric pressure in the rat
Intragastric pressure changes were recorded from previously starved conscious but restrained rats using a saline filled catheter inserted into the lumen of the stomach via a permanent gastric fistula. The catheter was connected to a physiological pressure transducer and pressure changes recorded on a hot wire pen recorder. In each animal a pre-dose period of 40 minutes was allowed to obtain a measure of spontaneous activity. An index of activity was obtained by measuring the average height of pressure waves during 10 minute periods. Values for 4 such periods were obtained during assessment of spontaneous activity and for the 40 minute period after the subcutaneous administration of the compounds. Students `t` test was applied to the difference in average values obtained for spontaneous and post-compound activity.

dopamine receptor [3] = molecular target: T1, dopamine receptor (Rattus norvegicus, UniProt P61169); experiment: In vitro displacement of radiolabelled spiroperidol from dopamine receptor membranes; type: binding, rat (Male Hooded Lister); details: for inhibition at 10 µM: 0.25 h, 10^-5 M compound, read-out: I(c) Spiroperidol Displacement % at 10^-5 M
T1 construct: the caudate nucleus is quickly dissected out; from tissue; host or cells: caudate nucleus of male Hooded Lister rats, homogenate
T1 sequence (P61169 whole entry): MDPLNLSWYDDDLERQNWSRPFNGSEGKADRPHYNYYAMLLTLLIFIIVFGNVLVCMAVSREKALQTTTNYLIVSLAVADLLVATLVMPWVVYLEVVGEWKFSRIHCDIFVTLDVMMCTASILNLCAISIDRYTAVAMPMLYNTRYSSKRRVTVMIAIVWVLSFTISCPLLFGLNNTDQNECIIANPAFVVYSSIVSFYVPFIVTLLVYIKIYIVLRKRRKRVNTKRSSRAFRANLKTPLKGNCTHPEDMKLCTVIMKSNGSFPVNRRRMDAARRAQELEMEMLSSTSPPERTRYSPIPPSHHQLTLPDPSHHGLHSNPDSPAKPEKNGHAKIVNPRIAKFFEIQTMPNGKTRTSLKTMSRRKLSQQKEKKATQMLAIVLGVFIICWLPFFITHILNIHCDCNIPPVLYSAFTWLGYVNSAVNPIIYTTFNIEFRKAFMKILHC
Protocol: (c) In vitro displacement of radiolabelled spiroperidol from dopamine receptor membranes
Therefore a compound which displaces this ligand from dopamine receptor membranes may have neuroleptic properties.
Male Hooded Lister rats (200-300 g) are decapitated and the caudate nucleus is quickly dissected out. This is homogenised in ice cold Tris buffer (pH 7.7 at 25° C.) at a concentration of 10 mg/ml wet weight of tissue. The test compound (at 10^-5 M) or spiroperidol (standard curve from 10^-5 to 10^-9 M) is added to the assay tubes followed by 0.5 nM [^3 H]-spiroperidol. This is mixed with 500 μl of the membrane preparation and the assay tubes are incubated for 15 minutes at 37° C. After this period 4 ml ice cold Tris buffer is added to each tube and the solutions are filtered through per-soaked glass fibre filters. The filter is washed twice with 4 ml of the buffer and then transferred to a scintillation vial for counting. Single concentration results are given as a percentage of [^3 H]-spiroperidol displaced.

[4] = Anti-obesity activity (single compound test); type: in vivo
[5] = Anti-arrhythmic activity (single compound test)
dopamine receptor [6] = molecular target: T1, dopamine receptor; details: literature; cited from earlier work
[7] = 0.5 nM [3H]-spiroperidol, rat caudate nucleus membranes
[8] = 0.5 nM [3H]-spiroperidol, rat caudate nucleus membranes, read-out: I(c) Spiroperidol Displacement ED50 (concentration for 50% displacement)

SMILES | III(b) Increase in Gastric Emptying (gastric emptying) | I(b) Anti-Climbing Activity Dose, Complete Inhibition (Dopamine Receptor [2]) | III(a) Increase in Intragastric Pressure Dose (minimum dose for activity) (intragastric pressure) | I(a) Dose Inhibiting Stereotype Behaviour (dose for complete inhibition) (Dopamine Receptor [1]) | ED100 (vomiting response) [mg/kg] | I(b) Anti-Climbing Activity Dose, ED50 (Dopamine Receptor [2]) [mg/kg] | inhibition at 10 µM (dopamine receptor [3]; [7]) [%] | further results
COc1cc(N)c(Cl)cc1C(=O)N[C@@H]1C[C@H]2CC[C@@H](C1)N2CC1CCCCC1 [Compound 30, 4-amino-5-chloro-2-methoxy-N-(3'β-[8'-cyclohexylmethyl-8'-azabicyclo-[3.2.1]-octyl])-benzamide] | 0.05% | 5 mg/kg | IA(1) |  |  |  |  | I(a) Dose Inhibiting Stereotype Behaviour (slight inhibition, footnote *) (Dopamine Receptor [1]; slight at 0.05): *; II Anti-Emetic Activity Dose, slight activity (footnote *) (vomiting response; slight at 5 × 10^-4): *; IC50 (dopamine receptor [3]): 20 nM
COc1cc(N)c(Cl)cc1C(=O)N[C@@H]1C[C@H]2CC[C@@H](C1)N2Cc1ccccc1 [Compound 5, 4-amino-5-chloro-2-methoxy-N-(3'β-[8'-benzyl]8-azabicyclo[3.2.1]octyl)benzamide] |  |  |  | 0.05 mg/kg | 0.001 | 0.03 |  | minimal effective dose (gastric emptying; sc, read-out: dose that significantly increases gastric emptying): 0.05 mg/kg; anti-obesity activity [4]: anti-obesity activity
CCCCN1[C@@H]2CC[C@H]1C[C@@H](NC(=O)c1cc(Cl)c(N)cc1OC)C2 [Compound 27, 4-amino-5-chloro-2-methoxy-N-(3'α-[8'-n-butyl-8'-azabicyclo[3.2.1]-octyl])benzamide] | IA(10) | IA (inactive at 10 mg/Kg p.o.) | IA(10) | IA(10) | 1 |  | 66 | 
CCCCN1[C@@H]2CC[C@H]1C[C@H](NC(=O)c1cc(Cl)c(N)cc1OC)C2 [Compound 26, 4-amino-5-chloro-2-methoxy-N-(3'β-[8'-n-butyl-8'-azabicyclo[3.2.1]-octyl])benzamide] | 1% |  |  |  | 0.4 | 2.9 |  | I(a) Dose Inhibiting Stereotype Behaviour (slight inhibition, footnote +) (Dopamine Receptor [1]; slight at 1): +; IC50 (dopamine receptor [3]; [8]): 400 nM
COc1cc(N)c(Cl)cc1C(=O)N[C@@H]1C[C@H]2CCC[C@@H](C1)N2Cc1ccccc1 [Compound 12, 4-amino-5-chloro-2-methoxy-N-(3'β-[9'-benzyl-9'-azabicyclo-[3.3.1]-nonyl])-benzamide] |  | 2 mg/kg | IA(1) | 0.5 mg/kg | 0.1 |  | 53 | 
COc1cc(N)c(Cl)cc1C(=O)N[C@@H]1C[C@H]2CC[C@@H](C1)N2Cc1ccc(C)cc1 [Compound 13, 4amino-5chloro-2-methoxy-N-(3β-[8'[4"methylbenzyl]-8'-azabicyclo[3.2.1]octyl])-benzamide] |  |  |  |  | 0.1 | 0.12 | 54 | 
COc1cc(N)c(Cl)cc1C(=O)N[C@H]1C[C@H]2CC[C@@H](C1)N2C [Compound 20, 4-amino-5-chloro-2-methoxy-N-(3'α-[8'-methyl-8'-azabicyclo[3.2.1]-octyl])-benzamide] |  |  |  |  |  |  |  | anti-arrhythmic activity [5]: anti-arrhythmic activity
O=C(CCCN1CCC2(CC1)C(=O)NCN2c1ccccc1)c1ccc(F)cc1 [[3H]-spiroperidol] |  |  |  |  |  |  |  | binding to dopamine receptors in the brain (dopamine receptor [6]): high affinity
COc1cc(N)c(Cl)cc1C(=O)N[C@@H]1C[C@H]2CC[C@@H](C1)N2CCc1ccccc1 [Compound 18, 4amino-5-chloro-2-methoxy-N-(3β-[8'-β-phenethyl]-['-azabicyclo[3.2.1]octyl])-benzamide] |  | IA (inactive at 10 mg/Kg p.o.) | IA(5) | IA(50) | 0.25 |  |  | IC50 (dopamine receptor [3]; [8]): 600 nM
COc1cc(N)c(Cl)cc1C(=O)N[C@@H]1C[C@H]2CC[C@@H](C1)N2C [Compound 19, 4-Amino-5-chloro-2-methoxy-N-(3'β-[8'-methy-8'-azabicyclo[3.2.1]-octyl])-benzamide] | 25% | IA (inactive at 10 mg/Kg p.o.) |  | IA(25) | 0.6 |  | 64 | minimal effective dose (intragastric pressure; sc, 40 min, read-out: III(a) Increase in Intragastric Pressure Dose (minimum dose for activity)): 1 to 10 mg/kg
